Four compounds from patent US4382958A, “Secondary amines and compositions for treatment of hypoglycaemia or obesity” (priority 1980, dated 1983) can be followed below.

The structures appear in SMILES notation. Where two headings read alike, the source gives them in different places.

One assay deals with Rat hearts. The assay is described as follows: Cardiac activity: rat hearts perfused by the Langendorff procedure. As to the method: Rat hearts were perfused by the Langendorff procedure.
Hearts were dissected free within 30 seconds of death and reverse perfused via the aorta and coronary vessels with Krebs-Ringer bicarbonate solution (pH 7.4, 37° C.) gassed with 95% oxygen: 5% carbon dioxide at a flow rate between 8-12 cm^3 /minute. Responses were observed after injection of drug dissolved in isotonic saline into the perfusion media.
Results are expressed as a percentage of the maximum response due to salbutamol.

The next assay has as its system rat ear. The assay is described as follows: Topical anti-inflammatory activity: croton oil inflammation of the rat ear. It counts as in vivo. To be noted: 6 hours, activity = significant (5% level) reduction in ear weight vs non-drug treated control. As to the method:
The method used is based on that described by G. Tonelli et al (Endocrinology, 77, 625-634, 1965). An inflammation is induced in the rat ear by the application of 50 μl of a 1% solution of croton oil in tetrahydrofuran, test compounds being dissolved in the irritant vehicle. After 6 hours the inflammation is assessed by killing the animals and weighing the ears. Topical anti-inflammatory activity of a compound is generally considered to be shown when a significant (5% level) reduction in ear weight is seen compared to non-drug treated control.

In assay [1] the test system is Female CFLP mice. The assay is described as follows: Effect on energy expenditure and food intake of mice. Type of assay: in vivo. The settings on record: Mus musculus, % of mice dosed with water; for response vs control in vivo at 18.5 mg/kg: 18.5 mg/kg po; for response vs control in vivo at 20 mg/kg: 20.0 mg/kg po; for response vs control in vivo at 22.2 mg/kg: 22.2 mg/kg po; for response vs control in vivo at 24.5 mg/kg: 24.5 mg/kg po. As to the method:
Female CFLP mice each weighing approximately 24 g were given food and water ad lib before and during the experiment. The compounds were dissolved in water by addition of one mole of hydrochloric acid per mole of compound and these solutions were administered orally to each of 12 mice. A further 12 mice were dosed orally with water. The mice were placed in boxes through which air was drawn and the oxygen content of the air leaving the boxes was measured. The energy expenditure of the mice was calculated for 21 hours after dosing from the volume of air leaving the boxes and its oxygen content following the principles described by J. B. de V. Weir, J. Physiol. […] The food intake of the mice was measured over this same period of 21 hours. The results are expressed as a percentage of the mean food intake or rate of energy expenditure of the mice dosed with water.

Assay [2] deals with Female CFLP mice. The assay can be described thus: Hypoglycaemic activity: blood glucose of fasted mice after subcutaneous glucose. It counts as in vivo. The settings on record: Mus musculus, 2 hour period after glucose, vs control mice given water, read-out: REDUCTION IN AREA UNDER BLOOD GLUCOSE CURVE (%); for inhibition in vivo at 1 µmol/kg: 1.0 μ mol/kg oral. The procedure:
Female CFLP mice, weighing approximately 25 g, were fasted for 24 hours prior to the study. The compounds under study were administered orally as an aqueous solution to each of 8 mice. 30 minutes later a blood sample ([…]) was obtained from the tail for the analysis of blood glucose. Immediately after taking this blood sample, glucose (1 g/kg body weight) was administered subcutaneously to each mouse. 8 mice were given water as a control. Blood samples were then obtained from each mouse at 30 minute intervals for 120 minutes.
Compounds that produced a significant (P<0.05) reduction on blood glucose, compared with control mice given water, at any time interval, were considered active. The area under the blood glucose curve over the 2 hour period after the administration of the glucose was calculated for each compound and compared with the value for control animals.

Assay [3] relates to Platelet aggregation (response to collagen). The assay is described as follows: Platelet aggregation inhibition activity: response to intravenous collagen in mice. It counts as in vivo. The settings on record: 1 μ mol/kg po; two hours before collagen 400 μg/kg i.v. The procedure:
Male CFLP mice (ca 20 g, n=8) were dosed orally with compound or vehicle (controls) after an overnight fast. Two hours later each mouse received an intravenous dose of collagen (400 μg/kg, pH 6-6.6). Exactly 30 sec. after injection of collagen, each mouse was placed in a chamber of CO2 until respiration ceased. […] Each concentration was expressed as a percent of that obtained in a tail blood sample taken immediately before injection of collagen.

In another assay the test system is genetically obese mice. The assay can be described thus: Anti-obesity activity: carcass lipid of genetically obese mice after oral gavage daily for 28 days. Type of assay: in vivo. The settings on record: 12.2 mg/kg p.o. daily for 28 days, control 18.75. The procedure:
The compound of Example 5 was administered by oral gavage in water or carboxymethyl-cellulose suspension to genetically obese mice daily for 28 days. At the end of the time the carcass composition was determined.

The mark [4] stands for this setting: 30 μg added to perfusate, percentage of the maximum response due to salbutamol, read-out: HEART RATE.
Setting [5] is: 30 μg added to perfusate, percentage of the maximum response due to salbutamol, read-out: HEART TENSION.
Setting [6] is: 0-3h, read-out: MEAN ENERGY EXPENDITURE (%) 0-3h.
Setting [7] is: 0-21h, read-out: MEAN ENERGY EXPENDITURE (%) 0-21h.
The mark [8] stands for this setting: over 21 hours, read-out: MEAN FOOD INTAKE (%).

As for `CC(Cc1ccc(OCCO)cc1)NCC(O)c1ccccc1F` (centres unmarked) [Example 1, N-[2-(4-(2-Hydroxyethoxy)phenyl)-1-methylethyl]-2-hydroxy-2-(2-fluorophenyl)ethanamine], the Emax with Rat hearts (setting [4]) was 63%; in the assay with Rat hearts (setting [5]), 53%. For the same compound, the “ACTIVITY (topical anti-inflammatory)” value in the assay on rat ear (2 mg/rat ear topical) was “Active”. For the same compound, the values for the response vs control in vivo at 18.5 mg/kg in the assay with Female CFLP mice [1] (setting [6]), with Female CFLP mice [1] (setting [7]) and in the assay with Female CFLP mice [1] (setting [8]) were 176%, 128% and 70%, respectively. Further, the inhibition in vivo at 3 µmol/kg with Female CFLP mice [2] (3.0 μ mol/kg oral) was 61%.
For `CC(Cc1ccc(OCCO)cc1)NCC(O)c1cccc(C(F)(F)F)c1` (centres unmarked) [Example 3, N-[2-(4-(2-Hydroxyethoxy)-phenyl)-1-methylethyl]-2-hydroxy-2-(3-trifluoromethylphenyl)ethanamine], the results for the Emax in the assay on Rat hearts (setting [4]) and in the assay with Rat hearts (setting [5]) were 17% and 50%, respectively. The response vs control in vivo at 20 mg/kg in the assay with Female CFLP mice [1] (setting [6]) was found to be 178%; with Female CFLP mice [1] (setting [7]), 134%; with Female CFLP mice [1] (setting [8]), 82%. For the same compound, the “% INHIBITION OF RESPONSE TO COLLAGEN” value in assay [3] is 47%. The inhibition in vivo at 2.5 µmol/kg in the assay on Female CFLP mice [2] (2.5 μ mol/kg oral) was found to be 52%.
As for `CC(Cc1ccc(OCCCO)cc1)NCC(O)c1cccc(C(F)(F)F)c1` (centres unmarked) [Example 4, N-[2-(4-(3-Hydroxypropoxy)phenyl)-1-methylethyl]-2-hydroxy-2-(3-trifluoromethylphenyl)-ethanamine], the figures for the Emax in the assay on Rat hearts (setting [4]) and with Rat hearts (read-out: HEART TENSION) were 7% and 0%, respectively. The “ACTIVITY (topical anti-inflammatory)” value with rat ear (0.5 mg/rat ear topical) is “Active”. In addition, the response vs control in vivo at 22.2 mg/kg stood at 179% with Female CFLP mice [1] (setting [6]), 121% in the assay on Female CFLP mice [1] (setting [7]) and 75% with Female CFLP mice [1] (setting [8]). Moreover, the inhibition in vivo at 1 µmol/kg in the assay with Female CFLP mice [2] stood at 31%.
Consider `CC(Cc1ccc(OCCCCCCO)cc1)NCC(O)c1cccc(C(F)(F)F)c1` (centres unmarked) [Example 5, N-[2-(4-(6-Hydroxyhexyloxy)phenyl)-1-methylethyl]-2-hydroxy-2-(3-trifluoromethylphenyl)-ethanamine], for which the Emax with Rat hearts (setting [4]) and in the assay with Rat hearts (setting [5]) was 0% throughout. Further, the figures for the response vs control in vivo at 24.5 mg/kg in the assay on Female CFLP mice [1] (setting [6]), in the assay with Female CFLP mice [1] (setting [7]) and in the assay on Female CFLP mice [1] (setting [8]) were 213%, 129% and 103%, respectively. In the assay with genetically obese mice, the “g LIPID/MOUSE, TREATED” value came to 15.80 g LIPID/MOUSE. In assay [3], the “% INHIBITION OF RESPONSE TO COLLAGEN” value stood at 47%. The inhibition in vivo at 1 µmol/kg with Female CFLP mice [2] is 59%.
